Reference: US11400084B2 (BioTheryX, Inc., priority 2018, dated 2022)

Assays:
IKAROS = target: T1, IKAROS (Homo sapiens, UniProt Q13422+Q96SW2); assay: Western blot IKAROS degradation assay in MV-4-11 cells; format: cell-based; conditions: 6-8 hours
T1 construct: endogenous in cells; host or cells: MV-4-11
Description: (§1) MV-4-11 cells were grown in RPMI 1640 media supplemented with 10% fetal bovine serum, streptomycin and penicillin.
(§2) Cells were cultured at approximately 10^6 cells per mL and incubated in DMSO or the indicated compound for 6-8 hours. Whole cell extracts were prepared using RIPA buffer according to manufacturer's protocol (Pierce). Briefly, 3×10^6 cells were washed once in PBS, the cell pellets were resuspended in RIPA buffer and allowed to incubate for 15 minutes on ice. Cells debris was removed by centrifugation and the cleared whole cell lysates were transferred to new tubes for further analysis.
(§3) For Western blot analysis, whole cell protein extracts were separated on 4-12% SDS-polyacrylamide gels, transferred to nitrocellulose and probed with the indicated primary antibodies. Membranes were subsequently washed and probed with the appropriate IRDye secondary antibodies (LI-COR). The signal was detected using the Odyssey Imaging System (LI-COR).
(§4) The following antibodies were used in these studies: Anti-eRF3/GSPT1: Abcam, ab126090 (Cambridge, Mass.); Anti-Ikaros: Abcam, ab191394 (Cambridge, Mass.); Anti-CK1α: Abcam, ab108296 (Cambridge, Mass.); β-actin (8H10D10) mouse monoclonal antibody: Cell Signaling Technology, #3700 (Danvers, Mass.); IRDye 680RD Goat anti-rabbit antibody: LI-COR, 926-68071 (Lincoln, Nebr.); IRDye 800CW Goat anti-mouse antibody: LI-COR, 926-32210 (Lincoln, Nebr.).
(§5) In each of Tables 1-3, the % degradation values are reported as “A”, “B”, “C”, or “D.” “A” represents a % degradation value of less than 25% (value<25%); “B” represents a % degradation value of equal to or more than 25% and less than 50% (25%≤value<50%); “C” represents a % degradation value of equal to or more than 50% and less than 75% (50%≤value<75%); and “D” represents a % degradation value of equal to or more than 75% (value≥75%).

CK1α = target: T2, CK1α (Homo sapiens, UniProt P48729+Q96SW2); assay: Western blot CK1α degradation assay in MV-4-11 cells; format: cell-based; conditions: 6-8 hours
T2 construct: endogenous in cells; host or cells: MV-4-11
T2 sequence (P48729 whole entry): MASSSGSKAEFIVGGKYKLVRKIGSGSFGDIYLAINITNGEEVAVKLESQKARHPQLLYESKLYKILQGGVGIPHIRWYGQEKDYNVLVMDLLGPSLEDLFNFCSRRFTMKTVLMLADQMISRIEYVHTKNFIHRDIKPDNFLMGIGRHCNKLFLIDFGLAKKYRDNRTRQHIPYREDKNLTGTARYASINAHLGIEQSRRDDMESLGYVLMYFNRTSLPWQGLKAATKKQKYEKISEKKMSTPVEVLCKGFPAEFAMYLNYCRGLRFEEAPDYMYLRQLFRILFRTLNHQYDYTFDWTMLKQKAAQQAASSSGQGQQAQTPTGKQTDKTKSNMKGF
T2 sequence (Q96SW2 whole entry): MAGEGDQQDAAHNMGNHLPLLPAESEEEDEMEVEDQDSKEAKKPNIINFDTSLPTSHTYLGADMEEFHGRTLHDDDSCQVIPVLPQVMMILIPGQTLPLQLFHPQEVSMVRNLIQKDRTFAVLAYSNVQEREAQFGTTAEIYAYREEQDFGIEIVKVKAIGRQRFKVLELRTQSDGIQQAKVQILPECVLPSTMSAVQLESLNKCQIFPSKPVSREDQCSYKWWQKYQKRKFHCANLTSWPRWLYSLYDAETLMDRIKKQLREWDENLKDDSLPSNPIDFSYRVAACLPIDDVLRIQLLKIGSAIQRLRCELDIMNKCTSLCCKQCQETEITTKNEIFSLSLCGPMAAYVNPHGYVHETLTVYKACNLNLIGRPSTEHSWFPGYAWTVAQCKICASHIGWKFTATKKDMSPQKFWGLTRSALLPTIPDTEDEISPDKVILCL
T2 sequence (Q16531 whole entry partner): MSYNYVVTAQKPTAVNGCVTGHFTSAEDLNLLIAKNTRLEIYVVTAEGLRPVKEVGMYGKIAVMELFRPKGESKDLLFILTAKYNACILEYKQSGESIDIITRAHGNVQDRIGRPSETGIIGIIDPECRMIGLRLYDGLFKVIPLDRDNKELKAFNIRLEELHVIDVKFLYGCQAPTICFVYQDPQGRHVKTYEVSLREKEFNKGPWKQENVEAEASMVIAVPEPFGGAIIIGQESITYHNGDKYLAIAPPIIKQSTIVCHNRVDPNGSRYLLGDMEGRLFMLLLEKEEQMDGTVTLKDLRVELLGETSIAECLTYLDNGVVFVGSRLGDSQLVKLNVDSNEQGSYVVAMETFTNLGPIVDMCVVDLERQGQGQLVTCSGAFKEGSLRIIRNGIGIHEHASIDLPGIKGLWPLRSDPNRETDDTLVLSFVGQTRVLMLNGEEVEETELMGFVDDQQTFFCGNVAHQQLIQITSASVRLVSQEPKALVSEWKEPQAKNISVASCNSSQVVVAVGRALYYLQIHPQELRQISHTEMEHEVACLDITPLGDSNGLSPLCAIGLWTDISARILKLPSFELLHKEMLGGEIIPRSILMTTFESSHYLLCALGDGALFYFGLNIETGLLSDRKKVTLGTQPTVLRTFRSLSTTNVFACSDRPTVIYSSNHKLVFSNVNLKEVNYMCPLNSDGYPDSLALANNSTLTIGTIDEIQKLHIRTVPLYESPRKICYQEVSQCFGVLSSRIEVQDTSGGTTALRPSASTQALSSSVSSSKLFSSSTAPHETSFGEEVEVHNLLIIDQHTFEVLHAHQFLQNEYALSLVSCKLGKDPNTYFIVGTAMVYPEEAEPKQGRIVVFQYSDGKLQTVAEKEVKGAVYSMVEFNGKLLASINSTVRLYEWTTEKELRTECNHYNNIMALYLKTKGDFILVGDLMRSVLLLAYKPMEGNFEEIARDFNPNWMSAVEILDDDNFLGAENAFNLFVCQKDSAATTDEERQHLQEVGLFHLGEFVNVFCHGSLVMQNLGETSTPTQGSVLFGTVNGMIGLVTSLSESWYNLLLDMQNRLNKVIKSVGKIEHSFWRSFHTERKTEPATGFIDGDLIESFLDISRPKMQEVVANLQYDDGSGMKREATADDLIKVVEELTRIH
Description: as §1, §2, §3, §4, §5

IL-1β = IL-1β inhibition assay, LPS-induced PBMCs or CD14+ monocytes, Meso Scale; format: cell-based; conditions: 100 ng/mL LPS 18-24 h
Description: (§6) Either frozen primary blood mononuclear cells (PBMCs) or frozen CD14+ mobilized peripheral blood monocytes were purchased from AllCells (PB003F, Normal Peripheral Blood MNC (Alameda, Calif.)). Cells were quick thawed, washed 1-time with RPMI-1640 (10% FBS/1% Pen-Strep) and plated in 96 well plates at 200,000 cells per well. Cells were pretreated with DMSO only or with the indicated compound for 1 h and then induced with 100 ng/mL lipopolysaccharide (LPS) for 18-24 h. The supernatant was analyzed for IL-1β, IL-6, and TNFα, using Meso Scale assay according to manufacturer's protocol. The negative control wells were treated with DMSO.

TNFα = assay: TNF-α inhibition assay, LPS-induced PBMCs or CD14+ monocytes, Meso Scale; format: cell-based; conditions: 100 ng/mL LPS 18-24 h
Description: as §6

IL-2 = IL-2 fold-change assay, anti-CD3 stimulated PBMCs, Mesoscale; format: cell-based; conditions: Homo sapiens, PBMC, 24 h, fold difference from the DMSO control
Description: For the IL-2 analysis, 96 well plates were precoated with 1 μg/mL anti-human CD3 antibody (OKT3, eBioscience Inc., San Diego, Calif.). After washing with PBS, the indicated compound was added (50 μL/well) followed by PBMCs diluted at 3-4 million cells/mL (150 μL/well). Plates were incubated for 24 h and the supernatants collected for Mesoscale IL-2 analysis. IL-2 activity is measured as fold difference from the DMSO control.
In Table 7, the fold-change values are reported as “A”, “B”, “C”, or “D”. “A” represents a fold-change value of equal to or less than 1 (value≤1); “B” represents a fold-change value of more than 1 and equal to or less than 2 (1<value≤2); “C” represents a fold-change value of more than 2 and equal to or less than 3 (2<value≤3); and “D” represents a fold-change value of more than 3 (value>3).

MOLM-13 cells = assay: MOLM-13 cell viability assay (CellTiter-Glo 2, 3 days, 2500 cells/well); format: cell-based; conditions: Homo sapiens, MOLM-13, 72 h, percentage of DMSO control
Description: MOLM-13 cells were cultured in RPMI 1640 media supplemented with 10% fetal bovine serum, streptomycin and penicillin, and were plated in white walled 96-well plates at 2500 cells/well. Cells were incubated in DMSO (control) or the indicated compound for 3 days at 37° C. and 5% CO2. Following the incubation period, 100 μL of CellTiterGlow2 (CTG2) reagent (CellTiter-Glo®2 Luminescent Cell Viability Assay, Promega (Madison, Wis.)) was added to each well. Following a 10 minutes incubation with shaking, luminescence was measured using the EnVision Multimode plate reader.
The MOLM-13 cell viability values, measured as percentages of the DMSO control, are reported in Table 8 as “A”, “B”, “C”, or “D.” “A” represents a % viability value of less than 40% (value<40%). “B” represents a % viability value of equal to or more than 40% and less than 60% (40%≤value<60%). “C” represents a % viability value of equal to or more than 60% and less than 90% (60%≤value<90%). “D” represents a % viability value of equal or more than 90% (value≥90%).

GSPT1 = target: T3, GSPT1 (Homo sapiens, UniProt P15170+Q96SW2); assay: Western blot GSPT1 degradation assay in MV-4-11 cells; format: cell-based; conditions: 1 μM, MV-4-11 cells, 6-8 hours
T3 construct: whole cell protein extracts were separated on 4-12% SDS-polyacrylamide gels; endogenous in cells; host or cells: MV-4-11
T3 sequence (P15170 whole entry): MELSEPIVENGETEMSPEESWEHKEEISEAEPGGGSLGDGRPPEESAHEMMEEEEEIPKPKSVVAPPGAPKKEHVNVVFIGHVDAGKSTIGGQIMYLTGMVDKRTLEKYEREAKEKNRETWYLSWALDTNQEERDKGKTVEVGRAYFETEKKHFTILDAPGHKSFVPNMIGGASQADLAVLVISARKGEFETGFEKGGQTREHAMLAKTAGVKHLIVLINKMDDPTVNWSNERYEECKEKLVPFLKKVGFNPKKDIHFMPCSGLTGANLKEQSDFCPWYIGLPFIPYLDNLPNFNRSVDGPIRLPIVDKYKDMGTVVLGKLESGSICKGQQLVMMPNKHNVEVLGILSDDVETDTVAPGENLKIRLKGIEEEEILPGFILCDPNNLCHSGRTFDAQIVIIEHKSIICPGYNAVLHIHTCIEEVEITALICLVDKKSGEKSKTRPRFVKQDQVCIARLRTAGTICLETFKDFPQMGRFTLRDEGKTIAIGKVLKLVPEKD
T3 sequence (Q96SW2 whole entry): as the sequence (Q96SW2 whole entry) above
T3 sequence (Q16531 whole entry partner): as the sequence (Q16531 whole entry partner) above
Description: as §1, §2, §3, §4, §5

MV-4-11 cells = assay: Comparative study cell viability, MV-4-11 cells (CTG2, 3 days); format: cell-based; conditions: relative to Compound 1
Description: (§7) Molm-13 and MV-4-11 cells (both leukemia cell lines) were cultured in RPMI 1640 media supplemented with 10% fetal bovine serum, streptomycin and penicillin, and were plated in white walled 96-well plates at 20,000 cells/well. THLE-2 cells (T-antigen immortalized human liver epithelial cells) were cultured using BEGM Bullet kit (Lonza CC-3170) supplemented with 10% fetal bovine serum, streptomycin and penicillin, and were plated in white walled 96-well plates 5000 cells/well. NHLF (normal human lung fibroblast) cells were cultured in DMEM media supplemented with 10% fetal bovine serum, streptomycin and penicillin, and were plated in white walled 96-well plates at 5000 cells/well. Cells were incubated in DMSO (control) or the indicated compounds for 3 days at 37° C. and 5% CO2. Following the incubation period, 100 μL of CellTiterGlow2 (CTG2) reagent (CellTiter-Glo®2 Luminescent Cell Viability Assay, Promega (Madison, Wis.)) was added to each well. Following a 10 minutes incubation with shaking, luminescence was measured using the Victor Wallac Luminometer or the Envision 2105 multimode plate reader.

THLE-2 cells = assay: Comparative study cell viability, THLE-2 cells (CTG2, 3 days); format: cell-based, human; conditions: relative to Compound 1
Description: as §7

T1 sequence (Q13422 whole entry): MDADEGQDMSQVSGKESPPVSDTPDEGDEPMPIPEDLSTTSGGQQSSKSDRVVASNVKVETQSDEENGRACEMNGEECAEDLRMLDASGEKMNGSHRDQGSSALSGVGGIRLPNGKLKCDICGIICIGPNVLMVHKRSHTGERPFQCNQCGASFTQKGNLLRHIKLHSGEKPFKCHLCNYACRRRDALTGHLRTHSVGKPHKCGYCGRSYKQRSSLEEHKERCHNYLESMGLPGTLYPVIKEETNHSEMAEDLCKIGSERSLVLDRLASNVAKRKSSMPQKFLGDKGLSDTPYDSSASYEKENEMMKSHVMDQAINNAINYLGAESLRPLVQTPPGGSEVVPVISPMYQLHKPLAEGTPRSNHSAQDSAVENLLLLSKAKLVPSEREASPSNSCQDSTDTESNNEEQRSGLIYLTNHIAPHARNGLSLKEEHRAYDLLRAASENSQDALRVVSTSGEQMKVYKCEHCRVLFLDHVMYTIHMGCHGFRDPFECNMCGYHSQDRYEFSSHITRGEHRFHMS
T1 sequence (Q96SW2 whole entry): as the sequence (Q96SW2 whole entry) above
T1 sequence (Q16531 whole entry partner): as the sequence (Q16531 whole entry partner) above

For `Cc1ccc(NCC(=O)NCc2csc3c2CN(C2CCC(=O)NC2=O)C3=O)cc1Cl` (stereo not shown) [Compound 5, 2-((3-chloro-4-methylphenyl)amino)-N-((5-(2,6-dioxopiperidin-3-yl)-6-oxo-5,6-dihydro-4H-thieno[2,3-c]pyrrol-3-yl)methyl)acetamide], the “IKAROS % Degradation at 1 μM” value (IKAROS) was “D (a % degradation value of equal to or more than 75% (value≥75%))”, the “CK1α % Degradation at 1 μM” value (CK1α) was “D (a % degradation value of equal to or more than 75% (value≥75%))” and the inhibition at 1 µM (IL-1β) was > 75%. The inhibition at 1 µM (TNFα) was > 75%, the fold induction at 1 µM (IL-2) was > 3 and the viability at 1 µM (MOLM-13 cells) was < 40%.

`Cc1cc(NCC(=O)NCc2scc3c2CN(C2CCC(=O)NC2=O)C3=O)ccc1N(C)C` (stereo not shown) [Compound 10, 2-((4-(dimethylamino)-3-methylphenyl)amino)-N-((5-(2,6-dioxopiperidin-3-yl)-4-oxo-5,6-dihydro-4H-thieno[3,4-c]pyrrol-1-yl)methyl)acetamide] was tested, and the “IKAROS % Degradation at 1 μM” value (IKAROS) was “A (a % degradation value of less than 25% (value<25%))”, the “CK1α % Degradation at 1 μM” value (CK1α) was “B (a % degradation value of equal to or more than 25% and less than 50% (25%≤value<50%))” and the “GSPT1 % Degradation at 1 μM” value (GSPT1) was “D (a % degradation value of equal to or more than 75% (value≥75%))”. For the same compound, the viability at 1 µM (MOLM-13 cells) was > 90%.

For `Cc1ccc(NCC(=O)NCc2cccc3c2CN(C2CCC(=O)NC2=O)C3=O)cc1Cl` (stereo not shown) [Compound 14, 2-((3-chloro-4-methylphenyl)amino)-N-((2-(2,6-dioxopiperidin-3-yl)-1-oxoisoindolin-4-yl)methyl)acetamide], the “IKAROS % Degradation at 1 μM” value (IKAROS) was “D (a % degradation value of equal to or more than 75% (value≥75%))”, the “CK1α % Degradation at 1 μM” value (CK1α) was “C (a % degradation value of equal to or more than 50% and less than 75% (50%≤value<75%))” and the “GSPT1 % Degradation at 1 μM” value (GSPT1) was “C (a % degradation value of equal to or more than 50% and less than 75% (50%≤value<75%))”. The inhibition at 1 µM (IL-1β) was > 75%, the inhibition at 1 µM (TNFα) was 50 to 75% and the fold induction at 1 µM (IL-2) was 2 to 3. It also gave a viability at 1 µM (MOLM-13 cells) of 40 to 60%.

For `O=C(CNc1ccccc1)NCc1ccc2c(c1)CN(C1CCC(=O)NC1=O)C2=O` (stereo not shown) [Compound 16, N-((2-(2,6-dioxopiperidin-3-yl)-1-oxoisoindolin-5-yl)methyl)-2-(phenylamino)acetamide], the “GSPT1 % Degradation at 1 μM” value (GSPT1) was “B (a % degradation value of equal to or more than 25% and less than 50% (25%≤value<50%))”, the viability at 1 µM (MOLM-13 cells) was 60 to 90% and the “IC50 concentration as fold of the IC50 concentration of Compound 1” value (MV-4-11 cells) was “over 2 fold”. The “IC50 concentration as fold of the IC50 concentration of Compound 1” value (THLE-2 cells) was “over 3 fold”.

In the case of `Cc1ccc(NCC(=O)NCc2ccc3c(c2)CN(C2CCC(=O)NC2=O)C3=O)nc1Cl` (stereo not shown) [Compound 20, 2-((6-chloro-5-methylpyridin-2-yl)amino)-N-((2-(2,6-dioxopiperidin-3-yl)-1-oxoisoindolin-5-yl)methyl)acetamide], the “IKAROS % Degradation at 1 μM” value (IKAROS) is reported as “B (a % degradation value of equal to or more than 25% and less than 50% (25%≤value<50%))”, the “CK1α % Degradation at 1 μM” value (CK1α) is reported as “B (a % degradation value of equal to or more than 25% and less than 50% (25%≤value<50%))” and the “GSPT1 % Degradation at 1 μM” value (GSPT1) is reported as “B (a % degradation value of equal to or more than 25% and less than 50% (25%≤value<50%))”. The inhibition at 1 µM (IL-1β) was < 30%, the inhibition at 1 µM (TNFα) was 30 to 50% and the viability at 1 µM (MOLM-13 cells) was > 90%.

`Cc1cc(NCC(=O)NCc2ccc3c(c2)CN(C2CCC(=O)NC2=O)C3=O)ccc1N1CCCC1` (stereo not shown) [Compound 21, N-((2-(2,6-dioxopiperidin-3-yl)-1-oxoisoindolin-5-yl)methyl)-2-((3-methyl-4-(pyrrolidin-1-yl)phenyl)amino)acetamide] was tested, and the “IKAROS % Degradation at 1 μM” value (IKAROS) was “C (a % degradation value of equal to or more than 50% and less than 75% (50%≤value<75%))”, the “CK1α % Degradation at 1 μM” value (CK1α) was “A (a % degradation value of less than 25% (value<25%))” and the “GSPT1 % Degradation at 1 μM” value (GSPT1) was “C (a % degradation value of equal to or more than 50% and less than 75% (50%≤value<75%))”. The inhibition at 1 µM (IL-1β) was < 30%, the inhibition at 1 µM (TNFα) was 30 to 50% and the fold induction at 1 µM (IL-2) was 1 to 2. For the same compound, the viability at 1 µM (MOLM-13 cells) was < 40%.

With `Cc1ccc(NCC(=O)NCc2ccc3c(c2)CN(C2CCC(=O)NC2=O)C3=O)cc1N1CCCC1` (stereo not shown) [Compound 24, N-((2-(2,6-dioxopiperidin-3-yl)-1-oxoisoindolin-5-yl)methyl)-2-((4-methyl-3-(pyrrolidin-1-yl)phenyl)amino)acetamide] the “IKAROS % Degradation at 1 μM” value (IKAROS) was “D (a % degradation value of equal to or more than 75% (value≥75%))”, the “CK1α % Degradation at 1 μM” value (CK1α) was “B (a % degradation value of equal to or more than 25% and less than 50% (25%≤value<50%))” and the “GSPT1 % Degradation at 1 μM” value (GSPT1) was “D (a % degradation value of equal to or more than 75% (value≥75%))”. The viability at 1 µM (MOLM-13 cells) was > 90%.

`Cc1cc(NCC(=O)NCc2ccc3c(c2)CN(C2CCC(=O)NC2=O)C3=O)ccc1N(C)C` (stereo not shown) [Compound 25, 2-((4-(dimethylamino)-3-methylphenyl)amino)-N-((2-(2,6-dioxopiperidin-3-yl)-1-oxoisoindolin-5-yl)methyl)acetamide] was tested, and the “CK1α % Degradation at 1 μM” value (CK1α) was “B (a % degradation value of equal to or more than 25% and less than 50% (25%≤value<50%))”, the “GSPT1 % Degradation at 1 μM” value (GSPT1) was “C (a % degradation value of equal to or more than 50% and less than 75% (50%≤value<75%))” and the inhibition at 1 µM (IL-1β) was < 30%. It also gave an inhibition at 1 µM (TNFα) of 30 to 50% and a fold induction at 1 µM (IL-2) of 1 to 2.
